Data published in patent publication US11840551B2, “Compositions and methods of modulating the immune response by activating alpha protein kinase 1” (Shanghai Yao Yuan Biotechnology Co., Ltd., priority 2017, dated 2023).
Entries after “also recorded” stand apart in the source; their conditions may differ.

How the values were obtained:
[1] = target: T1, ALPK1 (Homo sapiens, UniProt Q96QP1); assay: IL8 secretion in HEK293 cells (IL8 ELISA) as indicator of ALPK1 activation; conditions: for IL8 secretion in HEK293 cells: serial dilutions, 4 hours
Description: Phosphatase such as the alkaline phosphatase may be responsible for H1b-ADP hydrolysis. We pre-mixed H1b-ADP with phosphatase inhibitor sodium orthovanadate (Na3VO4) before incubation with FBS. […] We hypothesized that the accumulation of hydrolysis product AMP can inhibit phosphatase activity.
A number of H1b-ADP derivative compounds were made as described herein and tested for biological activity as agonists of ALPK1 in vitro. In these experiments, serial dilutions of the compounds were added to the tissue culture media of HEK293 cells with (FIG. 27B, FIG. 28B, FIG. 29B) or without (FIG. 26, FIG. 27A, FIG. 28A, FIG. 29A) 10% FBS, as indicated in the figures. After 4 hours, the cell supernatant was collected and analyzed for IL8 concentration using IL8 ELISA (BD) as an indicator of ALPK1 activation.

[2] = target: T1, ALPK1; assay: In vitro kinase assay of ALPK1-dependent TIFA phosphorylation; type: biochemical; conditions: ALPK1 2 nM, TIFA 1.6 uM, 50 uM ATP; compound 2 nM, 0.4 nM, 80 pM, 16 pM, 3 pM
Description: We performed an in vitro kinase assay with H1b-ADP and H1b-ADP-6L along with ALPK1 protein (2 nM), and TIFA protein (1.6 uM) in kinase buffer containing 50 uM ATP. TIFA phosphorylation was analyzed by denaturing gel electrophoresis followed by western blotting using an anti-phosphothreonine antibody. H1b-ADP or H1b-ADP-6L was added at 2 nM, 0.4 nM, 80 pM, 16 pM, and 3 pM.
To test this, we performed an in vitro kinase reaction for ALPK1-dependent TIFA phosphorylation in the presence of either HBP or HIdA purified from E. coli containing inactivated HIdE, or in the presence of HBP and HIdA purified from the same HIdE wild-type E. coli used in the previous experiments. Phosphorylated TIFA (three concentrations, 1%, 0.2% and […]) was detected as described above by denaturing gel electrophoresis followed by Western analysis.

T1 sequence (Q96QP1 whole entry): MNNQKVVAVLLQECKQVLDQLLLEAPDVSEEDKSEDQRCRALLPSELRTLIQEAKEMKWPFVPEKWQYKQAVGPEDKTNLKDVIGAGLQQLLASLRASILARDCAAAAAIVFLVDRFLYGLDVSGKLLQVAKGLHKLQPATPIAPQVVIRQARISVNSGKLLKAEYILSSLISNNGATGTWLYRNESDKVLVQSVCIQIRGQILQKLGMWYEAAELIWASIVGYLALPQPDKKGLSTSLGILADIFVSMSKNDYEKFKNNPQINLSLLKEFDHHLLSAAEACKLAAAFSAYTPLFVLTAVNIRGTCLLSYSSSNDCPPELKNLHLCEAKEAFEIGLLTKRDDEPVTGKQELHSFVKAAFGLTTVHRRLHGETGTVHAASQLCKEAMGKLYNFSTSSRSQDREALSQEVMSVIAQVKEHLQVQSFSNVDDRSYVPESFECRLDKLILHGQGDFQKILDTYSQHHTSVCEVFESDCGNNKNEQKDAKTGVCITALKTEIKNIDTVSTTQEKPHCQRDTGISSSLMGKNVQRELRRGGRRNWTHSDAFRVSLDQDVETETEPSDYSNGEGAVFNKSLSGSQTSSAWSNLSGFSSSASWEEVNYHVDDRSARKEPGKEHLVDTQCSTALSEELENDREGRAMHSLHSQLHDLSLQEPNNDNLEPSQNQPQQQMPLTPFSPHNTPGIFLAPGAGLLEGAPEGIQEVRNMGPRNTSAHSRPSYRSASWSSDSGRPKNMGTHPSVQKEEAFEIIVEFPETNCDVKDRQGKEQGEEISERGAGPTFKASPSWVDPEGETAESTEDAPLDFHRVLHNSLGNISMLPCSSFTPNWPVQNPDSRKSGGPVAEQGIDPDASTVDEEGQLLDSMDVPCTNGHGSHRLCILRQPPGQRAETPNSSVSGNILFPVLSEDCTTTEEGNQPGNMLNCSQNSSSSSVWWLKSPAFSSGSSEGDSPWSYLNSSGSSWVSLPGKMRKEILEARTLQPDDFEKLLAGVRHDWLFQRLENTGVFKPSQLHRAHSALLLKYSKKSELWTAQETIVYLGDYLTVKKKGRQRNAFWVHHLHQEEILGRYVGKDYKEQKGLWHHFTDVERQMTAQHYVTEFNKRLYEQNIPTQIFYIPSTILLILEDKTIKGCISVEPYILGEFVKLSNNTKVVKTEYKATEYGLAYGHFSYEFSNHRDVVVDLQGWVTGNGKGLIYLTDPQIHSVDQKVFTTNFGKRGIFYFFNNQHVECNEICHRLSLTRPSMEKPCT

Compound	IL8 secretion in HEK293 cells ([1]; with 10% FBS)	IL8 secretion in HEK293 cells ([1]; without FBS)	TIFA phosphorylation [2]	resistance to FBS (serum) degradation ([1]; comparison of IL8 secretion without FBS and with 10% FBS (FIG. 27A, FIG. 27B))
Nc1ncnc2c1ncn2[C@@H]1O[C@H](COP(O)(=S)OP(=O)(O)O[C@@H]2OC([C@H](O)CO)[C@@H](O)[C@H](O)C2O)[C@H](O)C1O (stereo partly drawn) [Compound 16]	increased IL8 secretion	increased IL8 secretion	–	–
Nc1ncnc2c1ncn2[C@@H]1O[C@H](COP(=O)(O)OP(=O)(O)O[C@@H]2O[C@H]([C@@H](O)CO)[C@@H](O)[C@H](O)[C@@H]2O)[C@@H](O)[C@H]1O [Compound H1b-ADP-6L, L-glycero-D-manno-heptose-1β-ADP]	–	–	activated ALPK1-dependent signaling in a manner similar to H1b-ADP	–
CC(=O)OC[C@@H](OC(C)=O)C1O[C@@H](OP(=O)(O)OP(O)(=S)OC[C@H]2O[C@@H](n3cnc4c(N)ncnc43)C(O)C2O)C(OC(C)=O)C(OC(C)=O)[C@@H]1OC(C)=O (stereo partly drawn) [Compound 15, (2S,3S,4S,5R,6R)-2-(((((((2R,3S,4R,5R)-5-(6-amino-9H-purin-9-yl)-3,4-dihydroxytetrahydrofuran-2-yl)methoxy)(hydroxy)phosphorothioyl)oxy)(hydroxy)phosphoryl)oxy)-6-((R)-1,2-diacetoxyethyl)tetrahydro-2H-pyran-3,4,5-triyl triacetate]	activate IL8 secretion	activate IL8 secretion	–	unexpected resistance to serum degradation; also recorded: resistant to FBS degradation
Nc1ncnc2c1ncn2[C@@H]1O[C@H](COP(=O)(O)OP(=O)(O)O[C@@H]2OC([C@@H](O)CO)[C@@H](O)C(O)C2O)C(O)C1O (stereo in doubt) [Compound 22, Adenosine-5′-(L-glycero-β-D-mannoheptopyranosyl) diphosphate]	increased IL8 secretion	increased IL8 secretion	–	–
CC(=O)OC[C@@H](OC(C)=O)C1O[C@@H](OP(=O)(O)OP(=O)(O)OCC2(F)O[C@@H](n3cnc4c(N)ncnc43)C3OC(C)(C)OC32)C(OC(C)=O)C(OC(C)=O)[C@@H]1OC(C)=O (single isomer, unassigned) [Compound 19]	activate IL8 secretion	activate IL8 secretion	–	–
CC(=O)OC[C@H]1O[C@@H](OP(=O)(O)OP(=O)(O)OC[C@H]2O[C@@H](n3cnc4c(N)ncnc43)[C@H](O)[C@@H]2O)[C@@H](OC(C)=O)[C@@H](OC(C)=O)[C@@H]1OC(C)=O [Compound 5, (2R,3R,4S,5S,6S)-2-(acetoxymethyl)-6-(((((((2R,3S,4R,5R)-5-(6-amino-9H-purin-9-yl)-3,4-dihydroxytetrahydrofuran-2-yl)methoxy)(hydroxy)phosphoryl)oxy)(hydroxy)phosphoryl)oxy)tetrahydro-2H-pyran-3,4,5-triyl triacetate]	increased IL8 secretion	increased IL8 secretion	–	–
CC(=O)OC[C@H](OC(C)=O)[C@H]1O[C@@H](OP(=O)(O)OP(=O)(O)OC[C@H]2O[C@@H](n3cnc4c(N)ncnc43)[C@H](O)[C@@H]2O)[C@@H](OC(C)=O)[C@@H](OC(C)=O)[C@@H]1OC(C)=O [Compound 21, (2S,3S,4S,5R,6R)-2-(((((((2R,3S,4R,5R)-5-(6-amino-9H-purin-9-yl)-3,4-dihydroxytetrahydrofuran-2-yl)methoxy)(hydroxy)phosphoryl)oxy)(hydroxy)phosphoryl)oxy)-6-((S)-1,2-diacetoxyethyl)tetrahydro-2H-pyran-3,4,5-triyl triacetate]	increased IL8 secretion	increased IL8 secretion	–	–
COC1C(OC)[C@@H](COP(=O)(O)OP(=O)(O)O[C@@H]2OC([C@H](O)CO)[C@@H](O)C(O)C2O)O[C@H]1n1cnc2c(N)ncnc21 (stereo in doubt) [Compound 14, Adenosine-2′3′-dimethoxy-5′-(D-glycero-B-D-mannoheptopyranosyl) diphosphate]	increased IL8 secretion	increased IL8 secretion	–	–
CC(=O)OC[C@@H](OC(C)=O)[C@H]1O[C@@H](OP(=O)(O)OP(=O)(O)OC[C@H]2O[C@@H](n3cnc4c(N)ncnc43)[C@H](O)[C@H]2F)[C@@H](OC(C)=O)[C@@H](OC(C)=O)[C@@H]1OC(C)=O [Compound 17, (2S,3S,4S,5R,6R)-2-(((((((2R,3R,4S,5R)-5-(6-amino-9H-purin-9-yl)-3-fluoro-4-hydroxytetrahydrofuran-2-yl)methoxy)(hydroxy)phosphoryl)oxy)(hydroxy)phosphoryl)oxy)-6-((R)-1,2-diacetoxyethyl)tetrahydro-2H-pyran-3,4,5-triyl triacetate]	increased IL8 secretion	increased IL8 secretion	–	–
CC(=O)OC[C@H](F)[C@H]1O[C@@H](OP(=O)(O)OP(=O)(O)OC[C@H]2O[C@@H](n3cnc4c(N)ncnc43)[C@H](O)[C@@H]2O)[C@@H](OC(C)=O)[C@@H](OC(C)=O)[C@@H]1OC(C)=O [Compound 3, (2S,3S,4S,5S,6S)-2-((S)-2-acetoxy-1-fluoroethyl)-6-(((((((2R,3S,4R,5R)-5-(6-amino-9H-purin-9-yl)-3,4-dihydroxytetrahydrofuran-2-yl)methoxy)(hydroxy)phosphoryl)oxy)(hydroxy)phosphoryl)oxy)tetrahydro-2H-pyran-3,4,5-triyl triacetate]	activate IL8 secretion	activate IL8 secretion	–	–
CC(=O)OC[C@@H](OC(C)=O)[C@H]1O[C@@H](OP(=O)(O)OP(=O)(O)OC[C@@]2(F)O[C@@H](n3cnc4c(N)ncnc43)[C@H](O)[C@@H]2O)[C@@H](OC(C)=O)[C@@H](OC(C)=O)[C@@H]1OC(C)=O [Compound 20, (2S,3S,4S,5R,6R)-2-(((((((2S,3S,4R,5R)-5-(6-amino-9H-purin-9-yl)-2-fluoro-3,4-dihydroxytetrahydrofuran-2-yl)methoxy)(hydroxy)phosphoryl)oxy)(hydroxy)phosphoryl)oxy)-6-((R)-1,2-diacetoxyethyl)tetrahydro-2H-pyran-3,4,5-triyl triacetate]	activate IL8 secretion	activate IL8 secretion	–	–
CO[C@@H]1[C@H](OC)[C@@H](COP(=O)(O)OP(=O)(O)O[C@@H]2O[C@H]([C@@H](COC(C)=O)OC(C)=O)[C@@H](OC(C)=O)[C@H](OC(C)=O)[C@@H]2OC(C)=O)O[C@H]1n1cnc2c(N)ncnc21 [Compound 13, (2S,3S,4S,5R,6R)-2-(((((((2R,3R,4R,5R)-5-(6-amino-9H-purin-9-yl)-3,4-dimethoxytetrahydrofuran-2-yl)methoxy)(hydroxy)phosphoryl)oxy)(hydroxy)phosphoryl)oxy)-6-((R)-1,2-diacetoxyethyl)tetrahydro-2H-pyran-3,4,5-triyl triacetate]	increased IL8 secretion	increased IL8 secretion	–	–
